Experimental data as given in patent US12209102B2, “Heterocyclic compounds and uses thereof” (Kumquat Biosciences Inc., priority 2022, dated 2025).

Columns and labels:
[1] = tested on: GP2D cells; experiment: Ras cellular assay, growth of cells with K-Ras G12D mutation (CellTiter-Glo); type: cell-based; conditions: cell growth, Example 9, G12D mutation, read-out: IC50 against GP2D cells
[2] = target: T1, K-Ras G12D (Homo sapiens, UniProt P01116, G12D); experiment: HTRF resonance energy transfer assay, K-Ras G12D / SOS1 interaction; type: biochemical; conditions: HTRF assay of Example 5; read-out: IC50 against K-Ras G12D
T1 construct: made in house; host or cells: E. coli BL21 (DE3)
Method in brief: (§1)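 Buffer about 5 mM HEPES pH 7.4 with ~150 mM NaCl, ~1 mM DTT, 0.05% BSA, 0.0025% (v/v) Igepal. Protein constructs used at molarity matching the IC50 range studied (e.g. ~500 nM). FRET between tagged K-Ras and hSOS1 measured after short incubation.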

[3] = target: T2, K-Ras WT (Homo sapiens, UniProt P01116); experiment: HTRF resonance energy transfer assay, K-Ras WT / SOS1 interaction; type: biochemical; conditions: HTRF assay of Example 5; read-out: IC50 against K-Ras WT
T2 construct: made in house; host or cells: E. coli BL21 (DE3)
Method in brief: as §1

[4] = target: T3, K-Ras G12S (Homo sapiens, UniProt P01116, G12S); experiment: HTRF resonance energy transfer assay, K-Ras G12S / SOS1 interaction; type: biochemical; conditions: HTRF assay of Example 5; read-out: IC50 against K-Ras G12S
T3 construct: made in house; host or cells: E. coli BL21 (DE3)
Method in brief: as §1

[5] = target: T4, K-Ras G12V (Homo sapiens, UniProt P01116, G12V); experiment: HTRF resonance energy transfer assay, K-Ras G12V / SOS1 interaction; type: biochemical; conditions: HTRF assay of Example 5; read-out: IC50 against K-Ras G12V
T4 construct: made in house; host or cells: E. coli BL21 (DE3)
Method in brief: as §1

[6] = tested on: A549 cells; experiment: Ras cellular assay, growth of cells with K-Ras G12S mutation (CellTiter-Glo); type: cell-based; conditions: Homo sapiens, cell growth, Example 9, G12S mutation, read-out: IC50 against A549 cells
Method in brief: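 Growth inhibition IC50 values come from four-parameter fits of CellTiter-Glo luminescence, read about 6 days after compound addition. G12S-mutant A549 cells (e.g. 800/well, RPMI-1640 + 10% heat-inactivated FBS) were plated in tissue-culture-treated or ultra-low-attachment 384-well format. Dosing began the following day with serial dilutions, e.g. 10 points, 3-fold.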

[7] = tested on: SW620 cells; experiment: Ras cellular assay, growth of cells with K-Ras G12V mutation (CellTiter-Glo); type: cell-based; conditions: Homo sapiens, SW-620; cell growth, Example 9, G12V mutation; read-out: IC50 against SW620 cells
Method in brief: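 IC50 values came from a four-parameter fit of CellTiter-Glo viability, read roughly 6 days after dosing with e.g. a 10-point threefold dilution series. G12V-mutant SW620 cells (e.g. 800 per well) had been plated the previous day in RPMI-1640/10% heat-inactivated FBS, on tissue culture-treated or ultra-low attachment plates.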

T3 sequence (P01116 1-188 isoform P01116-2 G12S): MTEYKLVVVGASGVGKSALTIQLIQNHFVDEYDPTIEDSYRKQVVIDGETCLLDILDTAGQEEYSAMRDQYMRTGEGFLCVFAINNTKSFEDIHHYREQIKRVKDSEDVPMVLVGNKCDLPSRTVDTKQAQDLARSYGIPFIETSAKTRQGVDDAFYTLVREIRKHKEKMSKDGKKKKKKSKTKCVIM
T1 sequence (P01116 1-188 isoform P01116-2 G12D): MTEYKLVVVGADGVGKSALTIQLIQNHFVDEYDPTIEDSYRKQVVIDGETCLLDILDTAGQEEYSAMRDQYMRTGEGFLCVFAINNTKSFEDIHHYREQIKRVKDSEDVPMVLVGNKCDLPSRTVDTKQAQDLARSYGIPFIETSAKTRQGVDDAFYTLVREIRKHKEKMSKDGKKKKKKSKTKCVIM
T2 sequence (P01116 1-188 isoform P01116-2): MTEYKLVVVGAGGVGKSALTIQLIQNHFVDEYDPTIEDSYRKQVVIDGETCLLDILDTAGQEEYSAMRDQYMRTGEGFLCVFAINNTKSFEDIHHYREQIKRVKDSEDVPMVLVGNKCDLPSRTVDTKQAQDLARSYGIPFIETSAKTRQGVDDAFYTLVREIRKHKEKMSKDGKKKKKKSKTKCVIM
T4 sequence (P01116 1-188 isoform P01116-2 G12V): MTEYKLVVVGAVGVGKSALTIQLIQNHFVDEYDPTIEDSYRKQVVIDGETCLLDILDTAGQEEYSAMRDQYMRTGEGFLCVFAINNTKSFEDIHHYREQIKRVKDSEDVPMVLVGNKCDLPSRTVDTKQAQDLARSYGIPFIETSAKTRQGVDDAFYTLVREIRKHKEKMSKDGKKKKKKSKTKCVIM

## N#Cc1c(N)sc2c(F)ccc(-c3c(Cl)c4c5c(nc(OC[C@@]67CCCN6C[C@H](F)C7)nc5c3F)N(C3CCN(C(=O)COC5CC5)C3)CCO4)c12 (stereo partly drawn) [Compound 812, 2-amino-4-(8-chloro-4-(1-(2-cyclopropoxyacetyl)pyrrolidin-3-yl)-10-fluoro-2-(((2R,7aS)-2-fluorotetrahydro-1H-pyrrolizin-7a(5H)-yl)methoxy)-5,6-dihydro-4H-[1,4]oxazepino[5,6,7-de]quinazolin-9-yl)-7-fluorobenzo[b]thiophene-3-carbonitrile]
[1]
  IC50: < 500 nM
[2]
  IC50: < 100 nM
[3]
  IC50: < 100 nM
[4]
  IC50: < 100 nM
[5]
  IC50: < 100 nM
[6]
  IC50: < 5000 nM
[7]
  IC50: < 5000 nM

## C[C@H](O)[C@H]1COc2c(Cl)c(-c3ccc(F)c4sc(N)c(C#N)c34)c(F)c3nc(OC[C@@]45CCCN4C[C@H](F)C5)nc(c23)N1CC(F)F [Compound 817, 2-amino-4-((5R)-8-chloro-4-(2,2-difluoroethyl)-10-fluoro-2-(((2R,7aS)-2-fluorotetrahydro-1H-pyrrolizin-7a(5H)-yl)methoxy)-5-((S)-1-hydroxyethyl)-5,6-dihydro-4H-[1,4]oxazepino[5,6,7-de]quinazolin-9-yl)-7-fluorobenzo[b]thiophene-3-carbonitrile]
[1]
  IC50: < 500 nM
[2]
  IC50: < 100 nM
[3]
  IC50: < 100 nM
[4]
  IC50: < 100 nM
[5]
  IC50: < 100 nM
[6]
  IC50: < 5000 nM
[7]
  IC50: < 5000 nM

## N#Cc1c(N)sc2c(F)ccc(-c3c(Cl)c4c5c(nc(OC[C@@]67CCCN6C[C@H](F)C7)nc5c3F)N(C3CCCOC3)CCO4)c12 (stereo partly drawn) [Compound 819, 2-amino-4-(8-chloro-10-fluoro-2-(((2R,7aS)-2-fluorotetrahydro-1H-pyrrolizin-7a(5H)-yl)methoxy)-4-(tetrahydro-2H-pyran-3-yl)-5,6-dihydro-4H-[1,4]oxazepino[5,6,7-de]quinazolin-9-yl)-7-fluorobenzo[b]thiophene-3-carbonitrile]
[1]
  IC50: < 500 nM
[2]
  IC50: < 100 nM
[3]
  IC50: < 100 nM
[4]
  IC50: < 100 nM
[5]
  IC50: < 100 nM
[6]
  IC50: < 5000 nM
[7]
  IC50: < 5000 nM

## COC1CN(C(=O)N2CCC(N3CCOc4c(Cl)c(-c5ccc(F)c6sc(N)c(C#N)c56)c(F)c5nc(OC[C@@]67CCCN6C[C@H](F)C7)nc3c45)C2)C1 (stereo partly drawn) [Compound 834, 2-amino-4-(8-chloro-10-fluoro-2-(((2R,7aS)-2-fluorotetrahydro-1H-pyrrolizin-7a(5H)-yl)methoxy)-4-(1-(3-methoxyazetidine-1-carbonyl)pyrrolidin-3-yl)-5,6-dihydro-4H-[1,4]oxazepino[5,6,7-de]quinazolin-9-yl)-7-fluorobenzo[b]thiophene-3-carbonitrile]
[1]
  IC50: < 500 nM
[2]
  IC50: < 100 nM
[3]
  IC50: < 100 nM
[4]
  IC50: < 100 nM
[5]
  IC50: < 100 nM
[6]
  IC50: < 5000 nM
[7]
  IC50: < 5000 nM

## C[C@H]1COc2c(Cl)c(-c3ccc(F)c4sc(N)c(C#N)c34)c(F)c3nc(OC[C@@]45CCCN4C[C@H](F)C5)nc(c23)N1CCC(F)F [Compound 835, 2-amino-4-((5S)-8-chloro-4-(3,3-difluoropropyl)-10-fluoro-2-(((2R,7aS)-2-fluorotetrahydro-1H-pyrrolizin-7a(5H)-yl)methoxy)-5-methyl-5,6-dihydro-4H-[1,4]oxazepino[5,6,7-de]quinazolin-9-yl)-7-fluorobenzo[b]thiophene-3-carbonitrile]
[1]
  IC50: < 500 nM
[2]
  IC50: < 100 nM
[3]
  IC50: < 100 nM
[4]
  IC50: < 100 nM
[5]
  IC50: < 100 nM
[6]
  IC50: < 5000 nM
[7]
  IC50: < 5000 nM

## N#Cc1c(N)sc2c(F)ccc(-c3c(Cl)c4c5c(nc(OC[C@@]67CCCN6C[C@H](F)C7)nc5c3F)N(CC3CC3(F)F)CCO4)c12 (stereo partly drawn) [Compound 850, 2-amino-4-(8-chloro-4-((2,2-difluorocyclopropyl)methyl)-10-fluoro-2-(((2R,7aS)-2-fluorotetrahydro-1H-pyrrolizin-7a(5H)-yl)methoxy)-5,6-dihydro-4H-[1,4]oxazepino[5,6,7-de]quinazolin-9-yl)-7-fluorobenzo[b]thiophene-3-carbonitrile]
[1]
  IC50: < 500 nM
[2]
  IC50: < 100 nM
[3]
  IC50: < 100 nM
[4]
  IC50: < 100 nM
[5]
  IC50: < 100 nM
[6]
  IC50: < 5000 nM
[7]
  IC50: < 5000 nM

## N#Cc1c(N)sc2c(F)ccc(-c3c(Cl)c4c5c(nc(OC[C@@]67CCCN6C[C@H](F)C7)nc5c3F)N(C3CCCC(O)C3)CCO4)c12 (stereo partly drawn) [Compound 854, 2-amino-4-(8-chloro-10-fluoro-2-(((2R,7aS)-2-fluorotetrahydro-1H-pyrrolizin-7a(5H)-yl)methoxy)-4-(3-hydroxycyclohexyl)-5,6-dihydro-4H-[1,4]oxazepino[5,6,7-de]quinazolin-9-yl)-7-fluorobenzo[b]thiophene-3-carbonitrile]
[1]
  IC50: < 500 nM
[2]
  IC50: < 100 nM
[3]
  IC50: < 100 nM
[4]
  IC50: < 100 nM
[5]
  IC50: < 100 nM
[6]
  IC50: < 5000 nM
[7]
  IC50: < 5000 nM

## N#Cc1c(N)sc2c(F)ccc(-c3c(Cl)c4c5c(nc(OC[C@@]67CCCN6C[C@H](F)C7)nc5c3F)N(C3CCN(C(=O)C5CC(C(F)F)C5)C3)CCO4)c12 (stereo partly drawn) [Compound 864, 2-amino-4-(8-chloro-4-(1-(3-(difluoromethyl)cyclobutane-1-carbonyl)pyrrolidin-3-yl)-10-fluoro-2-(((2R,7aS)-2-fluorotetrahydro-1H-pyrrolizin-7a(5H)-yl)methoxy)-5,6-dihydro-4H-[1,4]oxazepino[5,6,7-de]quinazolin-9-yl)-7-fluorobenzo[b]thiophene-3-carbonitrile]
[1]
  IC50: < 500 nM
[2]
  IC50: < 100 nM
[3]
  IC50: < 100 nM
[4]
  IC50: < 100 nM
[5]
  IC50: < 100 nM
[6]
  IC50: < 5000 nM
[7]
  IC50: < 5000 nM

## N#Cc1c(N)sc2c(F)ccc(-c3c(Cl)c4c5c(nc(OC[C@@]67CCCN6C[C@H](F)C7)nc5c3F)N(CC3(O)CC3)CCO4)c12 [Compound 868, 2-amino-4-(8-chloro-10-fluoro-2-(((2R,7aS)-2-fluorotetrahydro-1H-pyrrolizin-7a(5H)-yl)methoxy)-4-((1-hydroxycyclopropyl)methyl)-5,6-dihydro-4H-[1,4]oxazepino[5,6,7-de]quinazolin-9-yl)-7-fluorobenzo[b]thiophene-3-carbonitrile]
[1]
  IC50: < 500 nM
[2]
  IC50: < 100 nM
[3]
  IC50: < 100 nM
[4]
  IC50: < 100 nM
[5]
  IC50: < 100 nM
[6]
  IC50: < 5000 nM
[7]
  IC50: < 5000 nM

## N#Cc1c(N)sc2c(F)ccc(-c3c(Cl)c4c5c(nc(OC[C@@]67CCCN6C[C@H](F)C7)nc5c3F)N(C3CCN(C(=O)CC5CCOCC5)C3)CCO4)c12 (stereo partly drawn) [Compound 869, 2-amino-4-(8-chloro-10-fluoro-2-(((2R,7aS)-2-fluorotetrahydro-1H-pyrrolizin-7a(5H)-yl)methoxy)-4-(1-(2-(tetrahydro-2H-pyran-4-yl)acetyl)pyrrolidin-3-yl)-5,6-dihydro-4H-[1,4]oxazepino[5,6,7-de]quinazolin-9-yl)-7-fluorobenzo[b]thiophene-3-carbonitrile]
[1]
  IC50: < 500 nM
[2]
  IC50: < 100 nM
[3]
  IC50: < 100 nM
[4]
  IC50: < 100 nM
[5]
  IC50: < 100 nM
[6]
  IC50: < 5000 nM
[7]
  IC50: < 5000 nM

## N#Cc1c(N)sc2c(F)ccc(-c3c(Cl)c4c5c(nc(OC[C@@]67CCCN6C[C@H](F)C7)nc5c3F)N(C3COCC3O)CCO4)c12 (stereo partly drawn) [Compound 874, 2-amino-4-(8-chloro-10-fluoro-2-(((2R,7aS)-2-fluorotetrahydro-1H-pyrrolizin-7a(5H)-yl)methoxy)-4-(4-hydroxytetrahydrofuran-3-yl)-5,6-dihydro-4H-[1,4]oxazepino[5,6,7-de]quinazolin-9-yl)-7-fluorobenzo[b]thiophene-3-carbonitrile]
[1]
  IC50: < 500 nM
[2]
  IC50: < 100 nM
[3]
  IC50: < 100 nM
[4]
  IC50: < 100 nM
[5]
  IC50: < 100 nM
[6]
  IC50: < 5000 nM
[7]
  IC50: < 5000 nM

## COC1CC(C(=O)N2CCC(N3CCOc4c(Cl)c(-c5ccc(F)c6sc(N)c(C#N)c56)c(F)c5nc(OC[C@@]67CCCN6C[C@H](F)C7)nc3c45)C2)C1 (stereo partly drawn) [Compound 881, 2-amino-4-(8-chloro-10-fluoro-2-(((2R,7aS)-2-fluorotetrahydro-1H-pyrrolizin-7a(5H)-yl)methoxy)-4-(1-(3-methoxycyclobutane-1-carbonyl)pyrrolidin-3-yl)-5,6-dihydro-4H-[1,4]oxazepino[5,6,7-de]quinazolin-9-yl)-7-fluorobenzo[b]thiophene-3-carbonitrile]
[1]
  IC50: < 500 nM
[2]
  IC50: < 100 nM
[3]
  IC50: < 100 nM
[4]
  IC50: < 100 nM
[5]
  IC50: < 100 nM
[6]
  IC50: < 5000 nM
[7]
  IC50: < 5000 nM
